One compound from patent US20210060016A1, “ANTICANCER AGENT” (JAPANESE FOUNDATION FOR CANCER RESEARCH, priority 2017, published 2021) can be followed below.

For assay [1], the system named is human colorectal cancer cell line COLO-320DM. Nature of the assay: MTT assay, combination of test compound and other anticancer agents. The format is cell-based. The conditions noted are these: Examples 9 to 14, COLO-320DM: test compound added at the concentration shown in FIGS. 9 to 14 to irinotecan (SN-38); survival with only irinotecan = 100%. How it is done: The ratio of residual cells in treatment of the human colorectal cancer cell line COLO-320DM with a combination of the compound prepared in each Compound Example (test compound or tankyrase inhibitory compound) and each of the anticancer agents was measured to evaluate the cell killing effect of the combination on the human colorectal cancer cell line COLO-320DM. The combinations of test compounds and anticancer agents are as follows.
(Example 8): combination of the compound prepared in Compound Example 5 and temozolomide, melphalan, gemcitabine, cytarabine (Ara-C), fluorouracil (5-FU), pemetrexed, mercaptopurine, methotrexate, irinotecan (SN-38), etoposide (VP-16), actinomycin D, daunorubicin, doxorubicin, bleomycin, mitoxantrone, oxaliplatin, carboplatin or cisplatin (Example 9): combination of the compound prepared in Compound Example 110 (G007-LK) and irinotecan (SN-38) (Example 10): combination of the compound prepared in Compound Example 11 and irinotecan (SN-38) (Example 11): combination of the compound prepared in Compound Example 19 and irinotecan (SN-38) (Example 12): combination of the compound prepared in Compound Example 101 and irinotecan (SN-38) (Example 13): combination of the compound prepared in Compound Example 1 and irinotecan (SN-38) (Example 14): combination of the compound prepared in Compound Example 113 and irinotecan (SN-38)
Commercially available compounds were used for temozolomide (manufactured by Sigma-Aldric), melphalan (manufactured by Signa-Aldrich), gemcitabine (Gemcitabine hydrochloride; manufactured by Sigma-Aldric), cytarabine (Cytosine β-D-arabinofuranoside (Ara-C); manufactured by Sigma-Aldrich), fluorouracil (5-Fluorouracil (5-FU); manufactured by Sigma-Aldrich), pemetrexed (Pemetrexed disodium heptahydrate; manufactured by Sigma-Aldrich), mercaptopurine (6-Mercaptopurine monohydrate; manufactured by Sigma-Aldrich), methotrexate (Methotrexate hydrate; manufactured by Sigma-Aldrich), irinotecan (7-Ethyl-10-hydroxycamptothecin (SN-38); manufactured by Sigma-Aldrich), etoposide (Etoposide (VP-16); manufactured by Enzo Life Sciences, Inc.), actinomycin D (manufactured by nacalai tesque), daunorubicin (Daunorubicin hydrochloride; Calbiochem), doxorubicin (Doxorubicin hydrochloride; manufactured by Sigma-Aldrich), bleomycin (Bleomycin sulfate; manufactured by Enzo Life Sciences, Inc.), mitoxantrone (Mitoxantrone dihydrochloride; manufactured by Sigma-Aldrich), oxaliplatin (manufactured by Sigma-Aldrich), carboplatin (manufactured by Sigma-Aldrich) and cisplatin (manufactured by Enzo Life Sciences, Inc.).
First, the human colorectal cancer cell line COLO-320DM was suspended in RPMI1640 medium (hereinafter, medium) containing inactivated 10% fetal bovine serum, and the cells were seeded in a 96-well microplate at 350 cells (75 μL) per well. The cells were subjected to stationary culture overnight in a CO2 incubator at 37° C. Thereafter, in Example 8, a medium (25 μL) containing a combination of the compound prepared in Compound Example 5 and each of the anticancer agents was added in triplicate in such a manner that the final concentrations of the test compound (compound prepared in Compound Example 5) were 0 nM or 30 nM and that the final concentrations of each anticancer agent were those shown in Table 14. In Examples 9 to 14, a medium (25 μL) containing a combination of the compound prepared in each of Compound Examples and each of the anticancer agents was added in triplicate in such a manner that the final concentrations of the test compound were 0 nM or those shown in FIGS. 9 to 14. As a control, 25 μL of a medium containing only dimethyl sulfoxide (DMSO) which is a solvent was added. […]

A further assay concerns the target T1, tankyrase-2 (Homo sapiens, UniProt Q9H2K2).
T1 sequence (Q9H2K2 1-1166): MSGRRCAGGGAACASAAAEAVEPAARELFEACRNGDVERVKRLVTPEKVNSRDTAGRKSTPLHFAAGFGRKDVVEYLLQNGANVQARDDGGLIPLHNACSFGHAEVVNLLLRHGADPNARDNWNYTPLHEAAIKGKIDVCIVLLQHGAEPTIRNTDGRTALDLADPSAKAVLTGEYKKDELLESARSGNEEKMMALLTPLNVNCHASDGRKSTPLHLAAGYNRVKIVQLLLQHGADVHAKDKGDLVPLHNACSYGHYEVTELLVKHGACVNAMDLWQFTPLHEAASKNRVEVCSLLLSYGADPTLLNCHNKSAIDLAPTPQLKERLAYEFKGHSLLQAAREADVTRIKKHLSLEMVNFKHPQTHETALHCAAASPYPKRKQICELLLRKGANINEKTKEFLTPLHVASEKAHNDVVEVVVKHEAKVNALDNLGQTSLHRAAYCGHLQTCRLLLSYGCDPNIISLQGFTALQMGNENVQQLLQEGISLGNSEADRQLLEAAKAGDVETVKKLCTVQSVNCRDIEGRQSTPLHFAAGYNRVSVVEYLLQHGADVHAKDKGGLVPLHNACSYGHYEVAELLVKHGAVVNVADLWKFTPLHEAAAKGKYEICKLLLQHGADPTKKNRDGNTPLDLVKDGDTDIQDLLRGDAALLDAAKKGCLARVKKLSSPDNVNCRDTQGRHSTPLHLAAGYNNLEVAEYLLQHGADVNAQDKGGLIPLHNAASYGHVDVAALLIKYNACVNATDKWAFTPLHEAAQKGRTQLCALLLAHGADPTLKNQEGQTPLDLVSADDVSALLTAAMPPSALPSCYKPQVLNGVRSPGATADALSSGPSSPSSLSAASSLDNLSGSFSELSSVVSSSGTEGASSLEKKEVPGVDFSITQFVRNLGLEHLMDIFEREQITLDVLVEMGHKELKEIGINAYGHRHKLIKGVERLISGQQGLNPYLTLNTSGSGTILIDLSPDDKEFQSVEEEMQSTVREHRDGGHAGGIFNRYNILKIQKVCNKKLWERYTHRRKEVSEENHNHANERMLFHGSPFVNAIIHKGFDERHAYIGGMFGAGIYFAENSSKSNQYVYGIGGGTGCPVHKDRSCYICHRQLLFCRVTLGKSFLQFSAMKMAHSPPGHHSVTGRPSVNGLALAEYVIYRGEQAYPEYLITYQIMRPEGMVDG
Nature of the assay: X-ray diffraction of tankyrase-2 crystal soaked with the compound. The format is binding. The source says:
In the present invention, whether the tankyrase inhibitory compound is a nicotinamide-type compound or an adenosine-type compound can be determined by X-ray diffraction, more specifically a method in which a complex is crystallized from a mixed liquid of a tankyrase crystal prepared beforehand and the tankyrase inhibitory compound, and subjected to X-ray diffraction (soaking method), or a method in which a complex is crystallized from a mixed liquid having the tankyrase inhibitory compound coexisting with tankyrase in a state before the crystallization, and subjected to X-ray diffraction (co-crystallization). Whether the tankyrase inhibitory compound is a dual-type compound can be determined by preparing a crystal under any one of the above-described conditions, and performing X-ray diffraction.
X-ray diffraction data of a tankyrase-2 crystal soaked with the compound prepared in Compound Example 1 was measured with BL26B2 Beam Line in a large synchrotron radiation facility Spring-8 (Sayo-gun, Hyogo). The wavelength of the X-ray was 1.000 Å, and MX-225 (Rayonix, LLC) was used as a detector. The diffraction data was treated with XDS (Kabsch, 2010) and the CCP4 program (Winn et al., 2011).

With `O=c1[nH]c(N2CCC3(CC2)CN(CCO)c2cc(F)cc(F)c23)nc2c1CCCC2` [compound 1, 2-[4,6-Difluoro-1-(2-hydroxyethyl)spiro [indolin-3,4′-piperidin]-1′-yl]-5,6,7,8-tetrahydroquinazolin-4(3H)-one], in assay [1], the cell survival rate result was “about 50%”. Moreover, on tankyrase-2, the “binding pocket type by X-ray diffraction” value is “nicotinamide-type compound which binds to the nicotinamide binding pocket of tankyrase”.
